14 compounds from patent US8158792B2, “Spiropiperidines for use as tryptase inhibitors” (Janssen Pharmaceutica N.V., priority 2007, dated 2012) can be followed below.

One may read the pIC50 as −log10 of the IC50, conventionally taken in molar units. Lower therefore signals a large IC50.

pIC50: −log10 of the molar value.

This test addresses human lung tryptase. Description: β-Tryptase In-Vitro Enzyme Assay. The class given is biochemical. As to conditions: human lung tryptase 1 nM, substrate H-D-HHT-Ala-Arg-pNa 500 μM, pH 7.4, room temperature. On the procedure:
The β-tryptase assay was conducted with human lung tryptase (Cortex Biochem #CP3033) in an aqueous buffer (10 mM Tris, 10 mM Hepes, 150 mM NaCl, 0.1% PEG 8000, pH 7.4) using the chromogenic substrate H-D-HHT-Ala-Arg-pNa. […] Percent inhibition was calculated by comparing the initial reaction velocity of samples without inhibitor to those with inhibitor. The initial reaction velocities were analyzed using Microsoft Excel.
Turning to `CC(=O)c1ccc(C(=O)N2CCC3(CC2)COc2ccc(CN)cc23)cc1` [Cpd 67, 1-(4-methylcarbonyl-phenyl)carbonyl-5′-aminomethyl-spiro[piperidine-4,3′-(2H)-benzo[b]furan]], the pIC50 was 5.32.

Turning to `NCc1ccc2c(c1)C1(CCN(C(=O)c3ccc(CN4CCOCC4)o3)CC1)CO2` [Cpd 216, 1-(5-morpholin-4-ylmethyl-furan-2-yl)carbonyl-5′-aminomethyl-spiro[piperidine-4,3′-(2H)-benzo[b]furan]], the pIC50 was 5.77.

The compound `Cc1c(C(=O)N2CCC3(CC2)COc2ccc(CN)cc23)oc2cc(-c3ccccc3)ccc12` [Cpd 228, 1-(3-methyl-6-phenyl-benzo[b]furan-2-yl)carbonyl-5′-aminomethyl-spiro[piperidine-4,3′-(2H)-benzo[b]furan]] had a pIC50 of 7.43.

`NCc1ccc2c(c1)C1(CCN(C(=O)c3ccc(-c4cccc(C(F)(F)F)c4)o3)CC1)CO2` [Cpd 135, 1-[5-(3-trifluoromethyl-phenyl)-furan-2-yl]carbonyl-5′-aminomethyl-spiro[piperidine-4,3′-(2H)-benzo[b]furan]] gave a pIC50 of 6.48.

The compound `NCc1ccc2c(c1)C1(CCN(C(=O)CCc3ccc4c(c3)OCO4)CC1)CO2` [Cpd 104, 1-(benzodioxol-5-ylethyl)carbonyl-5′-aminomethyl-spiro[piperidine-4,3′-(2H)-benzo[b]furan]] showed a negative logarithm of the IC50 (pIC50) of 5.35.

As for `CC(C)(C)c1cccc(C(=O)N2CCC3(CC2)COc2ccc(CN)cc23)c1` [Cpd 274, 1-(3-tert-butyl-phenyl)carbonyl-5′-aminomethyl-spiro[piperidine-4,3′-(2H)-benzo[b]furan]], the pIC50 is 5.19.

With `CCn1cc(C(=O)N2CCC3(CC2)COc2ccc(CN)cc23)c2cccc(C)c21` [Cpd 250, 1-(1-ethyl-7-methyl-indol-3-yl)carbonyl-5′-aminomethyl-spiro[piperidine-4,3′-(2H)-benzo[b]furan]], the pIC50 is 6.36.

For the compound `COC(=O)c1ccc(S(=O)(=O)N2CC3(CCN(C(=O)c4ccc(C#Cc5ccccc5)o4)CC3)c3cc(CN)ccc32)o1` [Cpd 345, 1-(5-phenylethynyl-furan-2-yl)carbonyl-1′-(5-methoxycarbonyl-furan-2-yl)sulfonyl-5′-aminomethyl-spiro[piperidine-4,3′-(2H)-indole]], the pIC50 is 7.89.

Turning to `NCc1ccc2c(c1)C1(CCN(C(=O)c3ccc(C=O)s3)CC1)CO2` [Cpd 245, 1-(5-formyl-thien-2-yl)carbonyl-5′-aminomethyl-spiro[piperidine-4,3′-(2H)-benzo[b]furan]], the pIC50 was 6.29.

Regarding `NCc1ccc2c(c1)C1(CCN(C(=O)Cc3cccc(C(F)(F)F)c3)CC1)CO2` [Cpd 85, 1-(3-trifluoromethyl-benzyl)carbonyl-5′-aminomethyl-spiro[piperidine-4,3′-(2H)-benzo[b]furan]], the pIC50 is 5.57.

Compound `NCc1ccc2c(c1)C1(CCN(C(=O)Cc3cccc(F)c3)CC1)CO2` [Cpd 80, 1-(3-fluoro-benzyl)carbonyl-5′-aminomethyl-spiro[piperidine-4,3′-(2H)-benzo[b]furan]] had a pIC50 of 5.57.

With `NCc1ccc2c(c1)C1(CCN(C(=O)/C=C/c3ccc(-c4ccccc4)cc3)CC1)CO2` [Cpd 117, (E)-1-(4-phenyl-phenylethenyl)carbonyl-5′-aminomethyl-spiro[piperidine-4,3′-(2H)-benzo[b]furan]], the pIC50 is 6.22.

With `NCc1ccc2c(c1)C1(CCN(C(=O)c3cc(C#Cc4ccccc4)ccn3)CC1)CO2` [Cpd 152, 1-[4-phenylethynyl-pyridin-2-yl]carbonyl-5′-aminomethyl-spiro[piperidine-4,3′-(2H)-benzo[b]furan]], the pIC50 was 8.64.

For the compound `NCc1ccc2c(c1)C1(CCN(C(=O)c3cc4c(s3)CCCCC4)CC1)CO2` [Cpd 257, 1-(5,6,7,8-tetrahydro-4H-cyclohepta[b]thien-2-yl)carbonyl-5′-aminomethyl-spiro[piperidine-4,3′-(2H)-benzo[b]furan]], the pIC50 was 6.36.
